Experimental data as given in BindingDB's records for doi:10.1002/cbic.200300842 (University of Georgia, 2004).
Where “and” joins values, the source holds several entries; their conditions need not be identical. Equal values may be shown once.

Each molecule was assayed against T1, Alpha-mannosidase 2 (Homo sapiens, UniProt Q16706). Settings: pH 5.6; 37 °C.
T1 sequence (Q16706 whole entry): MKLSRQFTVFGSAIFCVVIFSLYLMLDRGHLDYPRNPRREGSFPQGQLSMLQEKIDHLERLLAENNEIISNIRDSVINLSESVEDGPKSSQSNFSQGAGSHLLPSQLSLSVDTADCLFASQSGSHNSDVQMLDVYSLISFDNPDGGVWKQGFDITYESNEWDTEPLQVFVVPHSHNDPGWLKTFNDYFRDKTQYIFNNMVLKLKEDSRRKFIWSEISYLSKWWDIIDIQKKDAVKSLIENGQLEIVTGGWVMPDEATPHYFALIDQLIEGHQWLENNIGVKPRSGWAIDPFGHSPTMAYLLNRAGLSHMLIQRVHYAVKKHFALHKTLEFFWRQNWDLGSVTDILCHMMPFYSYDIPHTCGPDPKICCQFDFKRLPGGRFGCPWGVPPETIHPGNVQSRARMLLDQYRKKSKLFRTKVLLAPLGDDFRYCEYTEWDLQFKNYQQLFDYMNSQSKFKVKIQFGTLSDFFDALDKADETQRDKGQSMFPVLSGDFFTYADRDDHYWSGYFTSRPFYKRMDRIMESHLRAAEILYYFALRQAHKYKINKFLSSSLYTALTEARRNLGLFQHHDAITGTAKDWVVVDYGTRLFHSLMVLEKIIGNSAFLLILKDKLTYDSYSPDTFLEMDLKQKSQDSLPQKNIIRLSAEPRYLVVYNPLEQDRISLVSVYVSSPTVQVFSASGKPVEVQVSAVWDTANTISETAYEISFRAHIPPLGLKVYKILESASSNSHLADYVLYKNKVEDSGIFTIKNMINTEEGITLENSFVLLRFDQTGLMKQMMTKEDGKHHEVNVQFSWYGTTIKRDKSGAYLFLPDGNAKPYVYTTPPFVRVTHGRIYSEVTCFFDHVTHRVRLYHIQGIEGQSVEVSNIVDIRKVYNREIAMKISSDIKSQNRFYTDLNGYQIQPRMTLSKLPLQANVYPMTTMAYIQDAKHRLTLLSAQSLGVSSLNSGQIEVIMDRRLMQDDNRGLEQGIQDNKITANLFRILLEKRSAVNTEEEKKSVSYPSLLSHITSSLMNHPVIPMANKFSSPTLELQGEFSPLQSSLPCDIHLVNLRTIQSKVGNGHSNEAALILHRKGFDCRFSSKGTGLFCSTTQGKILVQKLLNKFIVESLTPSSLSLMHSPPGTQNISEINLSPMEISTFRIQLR
CS[C@H]1[C@H](O)[C@H](O)[C@H](O)[C@@H]1NCc1ccc(F)cc1 [Benzylation of mannostatin A, 1c] was tested, and the Ki was 530 nM and 170 nM. CS[C@@H]1[C@@H](N)[C@@H](O)[C@@H](O)[C@H]1O [Mannostatin A, 1] was tested, and the Ki was 210 nM and 90 nM. For N[C@H]1[C@@H](O)[C@@H](O)[C@@H](O)[C@H]1O [Mannostatin analogue, 4b], the Ki was 50000 nM and 6600 nM. CS[C@H]1[C@H](O)[C@H](O)[C@H](O)[C@@H]1NCc1ccc(Cl)cc1 [Benzylation of mannostatin A, 1d] was tested, and the Ki was 910 nM and 100 nM. COc1ccc(CN[C@H]2[C@@H](O)[C@@H](O)[C@@H](O)[C@@H]2SC)cc1 [Benzylation of mannostatin A, 1f] was tested, and the Ki was 520 nM and 100 nM.
